# Laboratory results: patent publication US11945806B2, “Stabilization of amyloidogenic immunoglobulin light chains” (The Scripps Research Institute, priority 2019, dated 2024)
# Target: WIL-FL (Homo sapiens, UniProt P01721)
# Assay: Unlabeled LC Protease Sensitivity Assay (proteinase K)
# Format: biochemical
# Details: small molecule 10 μM, WIL-FL 5 μM, proteinase K 50 nM, 2 hours at 37° C.
# How it was run: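 WIL-FL light chain (5 μM) in PBS pH 7.4 + 0.02% Pluronic F-127 digested with proteinase K (50 nM) for 2 h at 37 °C with 10 μM compound (1% DMSO). Intact WIL-FL quantified by size-exclusion UPLC (A280). Fold protection = (A_compound−A_vehicle)/(A_no_protease−A_vehicle) from peak areas.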
row,SMILES,Protection (fold protection of LC from protease)
1,"CCN(CC)c1ccc2c(C)c(CCOC(=O)NCc3cccc(C(=N)NO)c3)c(=O)oc2c1 [Compound 170, 2-(7-(diethylamino)-4-methyl-2-oxo-2H-chromen-3-yl)ethyl (3-(N-hydroxycarbamimidoyl)benzyl)carbamate]",C (C ≥ 0.6)
2,"Cc1cc(=O)oc2cc(OC(C)c3cccnc3)ccc12 (stereo not shown) [Compound 171, 4-methyl-7-(1-(pyridin-3-yl)ethoxy)-2H-chromen-2-one]",A (A < 0.3))
3,"Cc1cc(=O)oc2cc(OC(C)c3ccncc3)ccc12 (stereo not shown) [Compound 172, 4-methyl-7-(1-(pyridin-4-yl)ethoxy)-2H-chromen-2-one]",A (A < 0.3))
4,"Cc1cc(=O)oc2cc(OC(C)c3cnccn3)ccc12 (stereo not shown) [Compound 173, 4-methyl-7-(1-(pyrazin-2-yl)ethoxy)-2H-chromen-2-one]",A (A < 0.3))
5,"Cc1cc(=O)oc2cc(OC(C)c3ccccn3)ccc12 (stereo not shown) [Compound 174, 4-methyl-7-(1-(pyridin-2-yl)ethoxy)-2H-chromen-2-one]",A (A < 0.3))
6,"CCN(CC)c1ccc2c(C)c(CCN3C(=O)NC4(CCN(C(=O)c5c[nH]cn5)CC4)C3=O)c(=O)oc2c1 [Compound 176, 3-(2-(7-(diethylamino)-4-methyl-2-oxo-2H-chromen-3-yl)ethyl)-8-(1H-imidazole-4-carbonyl)-1,3,8-triazaspiro[4.5]decane-2,4-dione]",B (3 ≤ B < 0.6)
7,"CCN(CC)c1ccc2c(C)c(CCN3C(=O)NC4(CCN(C(=O)c5ncc[nH]5)CC4)C3=O)c(=O)oc2c1 [Compound 177, 3-(2-(7-(diethylamino)-4-methyl-2-oxo-2H-chromen-3-yl)ethyl)-8-(1H-imidazole-2-carbonyl)-1,3,8-triazaspiro[4.5]decane-2,4-dione]",C (C ≥ 0.6)
8,"CCN(CC)c1ccc2c(C)c(CCN3C(=O)NC4(CCN(C(=O)c5ccc[nH]c5=O)CC4)C3=O)c(=O)oc2c1 [Compound 178, 3-(2-(7-(diethylamino)-4-methyl-2-oxo-2H-chromen-3-yl)ethyl)-8-(2-oxo-1,2-dihydropyridine-3-carbonyl)-1,3,8-triazaspiro[4.5]decane-2,4-dione]",A (A < 0.3))
9,"CCN(CC)c1ccc2c(C)c(CCN3C(=O)NC4(CCNC4)C3=O)c(=O)oc2c1 (stereo not shown) [Compound 179, 3-(2-(7-(diethylamino)-4-methyl-2-oxo-2H-chromen-3-yl)ethyl)-1,3,7-triazaspiro[4.4]nonane-2,4-dione]",B (3 ≤ B < 0.6)
10,"CCN(CC)c1ccc2c(C)c(CCN3C(=O)NC4(CCN(C(=O)c5cnc[nH]5)C4)C3=O)c(=O)oc2c1 (stereo not shown) [Compound 180, 3-(2-(7-(diethylamino)-4-methyl-2-oxo-2H-chromen-3-yl)ethyl)-7-(1H-imidazole-4-carbonyl)-1,3,7-triazaspiro[4.4]nonane-2,4-dione]",C (C ≥ 0.6)
11,"CCN(CC)c1ccc2c(C)c(CCN3C(=O)NC4(CCN(C(=O)c5ncc[nH]5)C4)C3=O)c(=O)oc2c1 (stereo not shown) [Compound 181, 3-(2-(7-(diethylamino)-4-methyl-2-oxo-2H-chromen-3-yl)ethyl)-7-(1H-imidazole-2-carbonyl)-1,3,7-triazaspiro[4.4]nonane-2,4-dione]",C (C ≥ 0.6)
12,"CCN(CC)c1ccc2c(C)c(CCN3C(=O)NC4(CCN(C(=O)c5ccc[nH]c5=O)C4)C3=O)c(=O)oc2c1 (stereo not shown) [Compound 182, 3-(2-(7-(diethylamino)-4-methyl-2-oxo-2H-chromen-3-yl)ethyl)-7-(2-oxo-1,2-dihydropyridine-3-carbonyl)-1,3,7-triazaspiro[4.4]nonane-2,4-dione]",B (3 ≤ B < 0.6)
13,"Cc1c(CN2CCOCC2)c(=O)oc2cc(OCC(C)c3ccccc3)ccc12 (stereo not shown) [Compound 183, 4-methyl-3-(morpholinomethyl)-7-(2-phenylpropoxy)-2H-chromen-2-one]",B (3 ≤ B < 0.6)
14,"Cc1c(CN2CCOCC2)c(=O)oc2cc(OC(C)Cc3ccccc3)ccc12 (stereo not shown) [Compound 184, 4-methyl-3-(morpholinomethyl)-7-((1-phenylpropan-2-yl)oxy)-2H-chromen-2-one]",A (A < 0.3))
15,"CCN(CC)c1ccc2c(C)c(CCN3C(=O)NC4(CCN(c5ncccn5)CC4)C3=O)c(=O)oc2c1 [Compound 185, 3-(2-(7-(diethylamino)-4-methyl-2-oxo-2H-chromen-3-yl)ethyl)-8-(pyrimidin-2-yl)-1,3,8-triazaspiro[4.5]decane-2,4-dione]",C (C ≥ 0.6)
16,"CCN(CC)c1ccc2c(C)c(CCN3C(=O)NC4(CCN(c5ncc(C(F)(F)F)cn5)CC4)C3=O)c(=O)oc2c1 [Compound 186, 3-(2-(7-(diethylamino)-4-methyl-2-oxo-2H-chromen-3-yl)ethyl)-8-(5-(trifluoromethyl)pyrimidin-2-yl)-1,3,8-triazaspiro[4.5]decane-2,4-dione]",A (A < 0.3))
17,"CCN(CC)c1ccc2c(C)c(CCN3C(=O)NC4(CCN(c5ccc(C(F)(F)F)cn5)CC4)C3=O)c(=O)oc2c1 [Compound 187, 3-(2-(7-(diethylamino)-4-methyl-2-oxo-2H-chromen-3-yl)ethyl)-8-(5-(trifluoromethyl)pyridin-2-yl)-1,3,8-triazaspiro[4.5]decane-2,4-dione]",A (A < 0.3))
18,"CCN(CC)c1ccc2c(C)c(CCN3C(=O)NC4(CCN(c5ncnc6[nH]cnc56)CC4)C3=O)c(=O)oc2c1 [Compound 188, 3-(2-(7-(diethylamino)-4-methyl-2-oxo-2H-chromen-3-yl)ethyl)-8-(9H-purin-6-yl)-1,3,8-triazaspiro[4.5]decane-2,4-dione]",C (C ≥ 0.6)
19,"CCN(CC)c1ccc2c(C)c(CCN3C(=O)NC4(CCN(c5ncc(C#N)cn5)CC4)C3=O)c(=O)oc2c1 [Compound 189, 2-(3-(2-(7-(diethylamino)-4-methyl-2-oxo-2H-chromen-3-yl)ethyl)-2,4-dioxo-1,3,8-triazaspiro[4.5]decan-8-yl)pyrimidine-5-carbonitrile]",A (A < 0.3))
20,"CCN(CC)c1ccc2c(C)c(CCN3C(=O)NC4(CCN(c5nccc(C#N)n5)CC4)C3=O)c(=O)oc2c1 [Compound 190, 2-(3-(2-(7-(diethylamino)-4-methyl-2-oxo-2H-chromen-3-yl)ethyl)-2,4-dioxo-1,3,8-triazaspiro[4.5]decan-8-yl)pyrimidine-4-carbonitrile]",C (C ≥ 0.6)
21,"CCN(CC)c1ccc2c(C)c(CCN3C(=O)NC4(CCN(c5ccc(C#N)cn5)CC4)C3=O)c(=O)oc2c1 [Compound 191, 6-(3-(2-(7-(diethylamino)-4-methyl-2-oxo-2H-chromen-3-yl)ethyl)-2,4-dioxo-1,3,8-triazaspiro[4.5]decan-8-yl)nicotinonitrile]",A (A < 0.3))
22,"CCN(CC)c1ccc2c(C)c(CCN3C(=O)NC4(CCN(c5ncnc6[nH]ncc56)CC4)C3=O)c(=O)oc2c1 [Compound 192, 3-(2-(7-(diethylamino)-4-methyl-2-oxo-2H-chromen-3-yl)ethyl)-8-(1H-pyrazolo[3,4-d]pyrimidin-4-yl)-1,3,8-triazaspiro[4.5]decane-2,4-dione]",C (C ≥ 0.6)
23,"CCN(CC)c1ccc2c(C)c(CCN3C(=O)NC4(CCN(c5ncccn5)C4)C3=O)c(=O)oc2c1 (stereo not shown) [Compound 194, 3-(2-(7-(diethylamino)-4-methyl-2-oxo-2H-chromen-3-yl)ethyl)-7-(pyrimidin-2-yl)-1,3,7-triazaspiro[4.4]nonane-2,4-dione]",C (C ≥ 0.6)
24,"CCN(CC)c1ccc2c(C)c(CCN3C(=O)NC4(CCN(c5ncc(C(F)(F)F)cn5)C4)C3=O)c(=O)oc2c1 (stereo not shown) [Compound 195, 3-(2-(7-(diethylamino)-4-methyl-2-oxo-2H-chromen-3-yl)ethyl)-7-(5-(trifluoromethyl)pyrimidin-2-yl)-1,3,7-triazaspiro[4.4]nonane-2,4-dione]",A (A < 0.3))
25,"CCN(CC)c1ccc2c(C)c(CCN3C(=O)NC4(CCN(c5ccc(C(F)(F)F)cn5)C4)C3=O)c(=O)oc2c1 (stereo not shown) [Compound 196, 3-(2-(7-(diethylamino)-4-methyl-2-oxo-2H-chromen-3-yl)ethyl)-7-(5-(trifluoromethyl)pyridin-2-yl)-1,3,7-triazaspiro[4.4]nonane-2,4-dione]",A (A < 0.3))
26,"CCN(CC)c1ccc2c(C)c(CCN3C(=O)NC4(CCN(c5ncnc6[nH]cnc56)C4)C3=O)c(=O)oc2c1 (stereo not shown) [Compound 197, 3-(2-(7-(diethylamino)-4-methyl-2-oxo-2H-chromen-3-yl)ethyl)-7-(9H-purin-6-yl)-1,3,7-triazaspiro[4.4]nonane-2,4-dione]",C (C ≥ 0.6)
27,"CCN(CC)c1ccc2c(C)c(CCN3C(=O)NC4(CCN(C(=O)c5ccc(C(N)=O)cc5)CC4)C3=O)c(=O)oc2c1 [Compound 198, 4-(3-(2-(7-(diethylamino)-4-methyl-2-oxo-2H-chromen-3-yl)ethyl)-2,4-dioxo-1,3,8-triazaspiro[4.5]decane-8-carbonyl)benzamide]",B (3 ≤ B < 0.6)
28,"CCN(CC)c1ccc2c(C)c(CCN3C(=O)NC4(CCN(C(=O)c5ccc(C(N)=O)cc5)C4)C3=O)c(=O)oc2c1 (stereo not shown) [Compound 199, 4-(3-(2-(7-(diethylamino)-4-methyl-2-oxo-2H-chromen-3-yl)ethyl)-2,4-dioxo-1,3,7-triazaspiro[4.4]nonane-7-carbonyl)benzamide]",B (3 ≤ B < 0.6)
